Laboratory results: patent US20050159599A1, “Cyclic compound, process for producing the same, and pest control agent” (priority 2002, published 2005)
Like-named read-outs stand apart in the source and are kept apart here.

Columns and labels:
Assay type in all cases: in vivo
Plutella xylostella [1] = assay: Insecticidal effect for Plutella xylostella by immersion treatment of host crop root (Test Example 3); conditions: for pest or weed control at 25 ppm: Plutella xylostella, 120 h, read-out: rate of dead pests (%)
Experimental: Insecticidal Effect for Plutella xylostella by Immersion Treatment of Host Crop Root
Roots of 4-leave stage cabbage was washed with tap water to remove soil, and then immersed in a pesticidal solution which was prepared by dissolving 5 mg of test compound (represented by the compound Nos. in the above Examples) in 0.5 ml of acetone containing Tween 20 (trade name) and then diluting it to the prescribed concentration (25 ppm) with ion-exchange water, and which was filled in a light-shielded Erlenmeyer flask (100 ml). On the fifth day after immersion of root, the root was cut off, and the stem and leaves were put into an ice cream cup (180 ml). Ten second-instar larvae of Plutella xylostella were set free therein, and the cup was left in a temperature-controlled breeding room (24° C.). On the fifth day after, the number of surviving Plutella xylostella was examined. The rate of dead pests was calculated by the following formula. rate of dead pests (%)=(number of dead pests/number of test pests)×100

Spodoptera litura [2] = assay: Insecticidal effect for Spodoptera litura by immersion treatment of host crop root (Test Example 4); conditions: 25 ppm, soybean root immersion 5 days, second-instar larvae of Spodoptera litura, fifth day after; for pest or weed control at 25 ppm: 120 h, read-out: rate of dead pests (%)
Experimental: Insecticidal Effect for Spodoptera litura by Immersion Treatment of Host Crop Root Roots of primary leaves developing stage soybean was washed with tap water to remove soil, and then immersed in a pesticidal solution which was prepared by dissolving 5 mg of test compound (represented by the compound Nos. in the above Examples) in 0.5 ml of acetone containing Tween 20 ([…]) with ion-exchange water, and which was filled in a light-shielded Erlenmeyer flask (100 ml). On the fifth day after immersion of root, two primary leaves were cut off, and the leaves were put into an ice cream cup (180 ml). Ten second-instar larvae of Spodoptera litura were set free therein, and the cup was left in a temperature-controlled breeding room (25° C.). On the fifth day after, the number of surviving Spodoptera litura was examined. The rate of dead pests was calculated by the following formula. rate of dead pests (%)=(number of dead pests/number of test pests)×100

Spodoptera litura [3] = assay: Insecticidal effect for Spodoptera litura by spraying treatment to host crop (Test Example 2); conditions: 100 ppm, sprayed on soybean, third-instar larvae of Spodoptera litura, fifth day after; for pest or weed control at 100 ppm: 120 h, read-out: rate of dead pests (%)
Summary of the method: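 Ten third-instar larvae held at 25° C. on two excised primary soybean leaves previously sprayed to dripping with 100 ppm test solution. Mortality (%) calculated from dead versus tested larvae on the fifth day.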

Plutella xylostella [4] = assay: Insecticidal effect for Plutella xylostella by immersion treatment of host crop (Test Example 1); conditions: cabbage leaf dipped, second-instar larvae of Plutella xylostella, fifth day after; for rate of dead pests (%): 100 ppm; for pest or weed control at 100 ppm: foliar, 120 h, read-out: rate of dead pests (%)
Experimental: Insecticidal Effect for Plutella xylostella by Immersion Treatment of Host Crop One true leaf of 7 to 8-leave stage cabbage was cut off and dipped in a pesticidal solution for a few seconds, which was prepared by dissolving 5 mg of test compound (represented by the compound Nos. in the above Examples) in 0.5 ml of acetone containing Tween 20 (trade name) and then diluting it to the prescribed concentration (100 ppm) with Dain (trade name, sticker) water diluted 5000-fold. After drying the pesticidal solution, the leaf was put into an ice cream cup (180 ml), and ten second-instar larvae of Plutella xylostella were set free therein. The cup was left in a temperature-controlled breeding room (24° C.). On the fifth day after, the number of surviving Plutella xylostella was examined. The rate of dead pests was calculated by the following formula. rate of dead pests (%)=(number of dead pests/number of test pests)×100

[5] = 25 ppm, cabbage root immersed 5 days, ten second-instar larvae on stem and leaves, counted on the fifth day, 24° C.

SMILES	rate of dead pests (%) (Plutella xylostella [1]; [5])	rate of dead pests (%) (Spodoptera litura [2])	rate of dead pests (%) (Spodoptera litura [3])	rate of dead pests (%) (Plutella xylostella [4])	also measured
O=C(c1c(F)cccc1F)N1COCN(c2ccc([S+]([O-])C(F)(F)C(F)(F)F)cc2F)C1=O (stereo not shown) [I-129, 3-(2,6-difluorobenzoyl)-5-[2-fluoro-4-(1,1,2,2,2-pentafluoroethylsulfinyl)phenyl]tetrahydro-4H-1,3,5-oxadiazin-4-one]	–	–	–	–	pest or weed control at 25 ppm (Plutella xylostella [1]; [5]): 100%; pest or weed control at 25 ppm (Spodoptera litura [2]): 100%; pest or weed control at 100 ppm (Spodoptera litura [3]): 100%
O=C(c1c(F)cccc1Cl)N1COCN(c2ccc([S+]([O-])C(F)(F)C(F)(F)C(F)(F)F)cc2F)C1=O (stereo not shown) [I-321]	95%	100%	100%	–	–
O=C(c1c(F)cccc1F)N1CNCN(c2ccc([S+]([O-])C(F)(F)C(F)Cl)cc2F)C1=O (stereo not shown) [III-91]	100%	95%	100%	–	–
CC(=O)N1CN(C(=O)c2c(F)cccc2F)C(=O)N(c2ccc([S+]([O-])C(F)F)cc2F)C1 (stereo not shown) [III-153]	100%	100%	100%	100%	–
O=C(c1c(F)cccc1F)N1COCN(c2ccc([S+]([O-])C(F)(F)C(F)Cl)cc2F)C1=O (stereo not shown) [I-8]	100%	100%	100%	100%	–
CSc1ccc(N2COCN(C(=O)c3c(F)cccc3Cl)C2=O)c(F)c1 [I-205]	90%	100%	100%	100%	–
Cc1cc(N2COCN(C(=O)c3c(F)cccc3F)C2=O)ccc1SC(F)(F)F [I-71]	95%	90%	100%	–	–
O=C(c1c(F)cccc1F)N1COCN(c2ccc([S+]([O-])C(F)(F)F)c(Cl)c2)C1=O (stereo not shown) [I-78]	90%	100%	100%	–	–
O=C(c1c(F)cccc1F)N1CN=CN(c2cc(Cl)c(F)c(Cl)c2F)C1=O [V-4, 1-(3,5-dichloro-2,4-difluorophenyl)-3-(2,6-difluorobenzoyl)-3,4-dihydro-1,3,5-triazin-2(1H)-one]	–	–	–	–	pest or weed control at 25 ppm (Plutella xylostella [1]; [5]): 95%; pest or weed control at 100 ppm (Plutella xylostella [4]): 100%; pest or weed control at 100 ppm (Spodoptera litura [3]): 100%
O=C(c1c(F)cccc1F)N1COCN(c2ccc([S+]([O-])C(F)(F)F)c(F)c2)C1=O (stereo not shown) [I-81]	100%	–	100%	100%	–
COC(=O)C(=O)N1CN(C(=O)c2c(F)cccc2F)C(=O)N(c2cc(Cl)c(F)c(Cl)c2F)C1 [III-64]	90%	90%	100%	100%	–
O=C(c1c(F)cccc1F)N1COCN(c2ccc([S+]([O-])C(F)(F)F)cc2Cl)C1=O (stereo not shown) [I-75]	95%	100%	100%	–	–
O=C(c1c(F)cccc1F)N1COCN(c2c(F)cc([S+]([O-])C(F)(F)F)cc2F)C1=O (stereo not shown) [I-105]	100%	100%	100%	–	–
O=C(c1c(F)cccc1F)N1COCN(c2cc(F)c([S+]([O-])C(F)(F)F)cc2F)C1=O (stereo not shown) [I-111]	100%	–	100%	–	–
O=C(c1c(F)cccc1F)N1COCN(c2ccc([S+]([O-])C(F)(F)C(F)F)cc2Cl)C1=O (stereo not shown) [I-17]	–	100%	100%	100%	–
O=C(c1c(F)cccc1Cl)N1COCN(c2ccc(SC(F)(F)F)cc2F)C1=O [I-221]	–	100%	100%	100%	–

SMILES	rate of dead pests (%) (Plutella xylostella [1]; [5])	rate of dead pests (%) (Spodoptera litura [2])	rate of dead pests (%) (Spodoptera litura [3])	rate of dead pests (%) (Plutella xylostella [4])	also measured
O=C(c1c(F)cccc1F)N1COCN(c2ccc([S+]([O-])C(F)(F)C(F)Cl)cc2)C1=O (stereo not shown) [I-11]	100%	100%	100%	100%	–
O=C(c1c(F)cccc1F)N1COCN(c2ccc(SCC(F)(F)F)cc2F)C1=O [I-34]	100%	–	100%	100%	–
Cc1cc([S+]([O-])C(F)(F)F)ccc1N1COCN(C(=O)c2c(F)cccc2F)C1=O (stereo not shown) [I-69]	100%	–	100%	–	–
O=C(c1c(F)cccc1F)N1COCN(c2ccc([S+]([O-])C(F)(F)C(F)(F)C(F)(F)F)cc2F)C1=O (stereo not shown) [I-144, 3-(2,6-difluorobenzoyl)-5-[2-fluoro-4-(1,1,2,2,3,3,3-heptafluoro-1-propylsulfinyl)phenyl]tetrahydro-4H-1,3,5-oxadiazin-4-one]	–	–	–	–	pest or weed control at 25 ppm (Plutella xylostella [1]; in Brassica oleracea): 95%
Cc1cc(N2COCN(C(=O)c3c(F)cccc3Cl)C2=O)ccc1[S+]([O-])C(F)(F)F (stereo not shown) [I-249]	95%	–	100%	–	–
O=C(c1c(F)cccc1F)N1COCN(c2ccc(S(=O)(=O)C(F)F)cc2F)C1=O [I-43, 3-(2,6-difluorobenzoyl)-5-[4-(difluoromethylsulfonyl)-2-fluorophenyl]tetrahydro-4H-1,3,5-oxadiazin-4-one]	–	–	–	–	pest or weed control at 25 ppm (Spodoptera litura [2]): 100%; pest or weed control at 100 ppm (Plutella xylostella [4]): 100%; pest or weed control at 100 ppm (Spodoptera litura [3]): 100%
Cc1c(N2COCN(C(=O)c3c(F)cccc3F)C2=O)ccc([S+]([O-])C(F)(F)F)c1Cl (stereo not shown) [I-123]	100%	–	100%	–	–
O=C(c1c(F)cccc1F)N1COCN(c2c(F)cc([S+]([O-])C(F)(F)F)cc2Cl)C1=O (stereo not shown) [I-102]	100%	–	100%	–	–
O=C(c1c(F)cccc1Cl)N1COCN(c2ccc(SC(F)F)cc2F)C1=O [I-218]	–	100%	100%	100%	–
COC(=O)C(=O)N1CN(C(=O)c2c(F)cccc2F)C(=O)N(c2ccc(SC(F)(F)C(F)Cl)cc2F)C1 (stereo not shown) [III-79]	–	100%	100%	100%	–
CS(=O)(=O)N1CN(C(=O)c2c(F)cccc2F)C(=O)N(c2ccc([S+]([O-])C(F)F)cc2F)C1 (stereo not shown) [III-154]	100%	100%	100%	–	–
O=C(c1c(F)cccc1F)N1COCN(c2ccc([S+]([O-])C(F)(F)C(F)Cl)cc2Cl)C1=O (stereo not shown) [I-14]	100%	100%	100%	–	–
Cc1c(N2COCN(C(=O)c3c(F)cccc3F)C2=O)ccc([S+]([O-])C(F)(F)F)c1C (stereo not shown) [I-84]	100%	–	100%	–	–
O=C(c1c(F)cccc1F)N1COCN(c2ccc([S+]([O-])C(F)(F)C(F)F)cc2F)C1=O (stereo not shown) [I-23]	95%	100%	100%	–	–
Cc1cc(N2COCN(C(=O)c3c(F)cccc3F)C2=O)ccc1[S+]([O-])C(F)(F)F (stereo not shown) [I-72]	100%	–	100%	–	–
Cc1cc([S+]([O-])C(F)(F)F)c(F)cc1N1COCN(C(=O)c2c(F)cccc2F)C1=O (stereo not shown) [I-126]	100%	–	100%	–	–
